Consider 1 compound from patent US4442093A, “Method for administering 24,25-dihydroxycholecalciferol to persons suffering from hypercalcemia” (Kureha Kagaku Kogyo Kabushiki Kaisha, priority 1981, dated 1984).

Series [1] relates to calcium level in serum. Description: Serum calcium in normal fasted rats (Example 2). Type of series: in vivo, male Wistar-rats. Here is the method:
Four subgroups of male Wistar-rats (a subgroup consisting of 5 animals) were used as the test animals, and they were fasted one whole day before the test.
To the rats of the first group consisting of 2 subgroups, a solution of 24R,25-(OH)2 -D3 in the triglyceride ester used in Example 1 was orally administered once at a dose rate of 100 micrograms of the agent/kg body weight.
To the rats of the second group consisting of 2 subgroups, only the triglyceride used in Example 1 was administered orally, and while using them as control, the calcium level in their serum was determined as in the first group.

Series [2] in a line: Acute oral mammalian toxicity. Set-up: species or system male mouse of ICR-strain. The note with it: mouse, in vivo, read-out: LD50 (per os). The method, then: 0.3 ml of ethanolic solution containing 150 mg of 24R,25-(OH)2 -D3 was suspended in 15 ml of Panacete® 810 (triglyceride ester of C8 and C10 -fatty acid, made by Nippon Oil & Fats Co., Ltd.) to obtain a suspension containing 2% by weight of ethanol. The thus prepared composition was orally administered to a group of male mouse of ICR-strain consisting of 10 animals at a dose rate of 150 mg of 24R,25-(OH)2 -D3 per kg.

Series [3] deals with K-562 tumour cell derived from human leukemia. Description: Inhibition of proliferation of K-562 cells (Example 24). The note with it: 3 days. Type of series: cell-based. Here is the method: Cultured K-562 tumour cell derived from human leukemia, which proliferates in a suspended state in RPMI-1640 culture medium added with 10% by weight of fetal bovine serum was used in the following experiment.
The cells were cultured in the above-mentioned culture medium at an initial cell concentration of 1×10^5 cells/ml with or without adding 24R,25-(OH)2 -D3, which was placed in dishes kept in an incubator of an atmosphere consisting of 95% by volume of air and 5% by volume of gaseous carbon dioxide at 37° C. After culturing 3 days, the cultured medium was stained with tripan blue to count the total number of living cells. The results are shown in Table 18 with the specifically added substances into the culture medium other than fetal bovine serum of 10% by weight.

The subject of series [4] is calcium level in serum. The series can be described thus: Serum calcium in patient with sarcoidosis accompanied by hypercalcemia (Example 8). Type of series: in vivo, human. The following applies: person two. Here is the method: To patient two diagnosed to be sarcoidosis accompanied by hypercalcemia of the calcium level in their serum of 14.0 mg/dl, the capsule composition similar to that prepared in Example 6 was administered orally at a daily dose of two capsules each containing 5 micrograms of 24R,25-(OH)2 -D3 for continuous 5 days. The calcium level in serum from the blood specimen collected on the sixth day of the commencement of the treatment was 10.8 mg/dl.

Series [5] has as its system mononucleates (lymphocytes) of peripheral blood. Description: Blastoid-transformation of rat lymphocytes in peripheral blood, 3H-TdR uptake (Example 13). It counts as in vivo. The method, then:
The effect of the present compound on the blastoid-transformation of rat lymphocytes in the peripheral blood was examined as follows: After mixing each of the blood specimens taken from the respective rats of the four groups in Example 11 added with heparin and RPMI-1640 culture medium at a weight ratio of 1:1, the mixture was added to Ficoll-Paque solution, and the thus obtained mixture was subjected to centrifugal separation at 400 G for 20 min to collect the layer of mononucleates. After washing the thus collected mononucleates three times with PRMI-1640 culture medium (in a liquid state), the washed mononucleates were suspended into RPMI-1640 culture medium added with 10% by weight of calf serum to be in concentration of 1.5×10^6 cells/ml. Hundred microliters of the thus prepared suspension was placed in the pit of Pharcon microtest II plate, and after adding a substance promoting cell division (hereinafter referred to as mitogen) and RPMI-1640 culture medium added with 10% by weight of calf serum to the thus placed suspension to make the total volume 200 microliters, the thus prepared mixture was incubated for 72 hours under a gas (a 95:5 by volume mixture of air and carbon dioxide saturated with moisture) flow at 37° C. ^3 H-methylthymidine of specific activity of 5 Ci/mmol was added to the mixture during incubation at the time 24 hours before the incubation was over in an amount corresponding to 0.5 micro Ci. After the incubation was over, the cells in the culture were collected by filtering the cultured mixture, and the amount of radioactive isotope uptaken into the cells was determined by a liquid scintillation counter. For reference, the mitogen used in the present test is concanavalin A for T-cell or lipopolysaccharide for B-cell.

For series [6], the system named is inorganic phosphate in serum. Description: Serum inorganic phosphate in 5/6-nephrectomized rats (Example 18). Type of series: in vivo, male Wistar rats. The following applies: hyperphosphatemia due to 5/6-nephrectomy. The method, then: Ten milligrams of 24R,25-(OH)2 -D3 was dissolved in 10 ml of isopropyl alcohol and one ml of the thus obtained solution was admixed into 1,000 ml of distilled water under agitation. The thus obtained solution has the concentration of isopropyl alcohol of 0.1% by weight and the concentration of 24R,25-(OH)2 -D3 of 1 microgram/ml and was called as the composition for oral administration A (abbreviated and referred to as Composition A hereinafter). In a similar manner as the above, another composition for oral administration of the concentration of 24R,25-(OH)2 -D3 of 0.1 microgram/ml and the concentration of isopropyl alcohol of 0.1% by weight was prepared, and referred to hereinafter as Composition B.
Thirty male Wistar rats of average body weight of 200±30 g were subjected to operation of 5/6--nephrectomy.
Ten male Wistar rats of the same average body weight were subjected to sham operation. After one month of the operation, the above-mentioned Composition A or Composition B was given to each group (one group consisting of 10 animals) of the rats 6 times a week for 9 weeks to be taken ad lib. The amount of 24R,25-(OH)2 -D3 taken by each rat for a week was calculated from the total amount of water taken by the rats of the group, the total amount of water taken by the rats being actually measured week after week.

The next series has as its system thymic cells. The series can be described thus: Pattern of the size of thymic cells by FACS (Example 12). It counts as in vivo, rats. The note with it: 100 µg/kg/day oral 12 days with puromycin aminonucleoside. Here is the method:
After feeding the rats (the same number and the same grouping) of the same strain and treating them in the same manner as in Example 11, their thymus was resected, and an analysis of the pattern of the size of the thymic cells was carried out while using Fluorescence Activated Cell Sorter (FACS II, made by Becton-Dickinson Co.) as follows:
After loosing the resected thymus in phosphate buffer solution sufficiently with a pincette, pipetting well and passing the mixture through a standard #200 Tyler stainless steel mesh, the filtrate was treated with an aqueous 0.83% by weight ammonium chloride buffer solution containing tris-hydroxyaminomethane to carry out hemolysis of the erythrocytes intermingled therein followed by three times of washing with the phosphate buffer solution. After adjusting the concentration of the thus obtained thymic cell to 5×10^6 cells/ml with the addition of the phosphate buffer solution, the abovementioned analysis was carried out. The ratio of the number of living thymic cells to the total number of the thus obtained thymic cells was confirmed to be higher than 95% after staining with trypan blue and counting under microscope.

Setting [7] is: 100 µg/kg/day oral 12 days with puromycin aminonucleoside.

Structures are written as SMILES.

`C=C1CC[C@H](O)C/C1=C/C=C1\CCC[C@]2(C)[C@@H]([C@H](C)CC[C@@H](O)C(C)(C)O)CC[C@@H]12` [24R,25-(OH)2 -D3]: the figures for the “Calcium level in serum” value in the series with calcium level in serum [1] (2 h after 100 µg/kg oral) and in the series with calcium level in serum [1] (5 h after 100 µg/kg oral) were 10.6 ± 0.3 mg/dL and 10.5 ± 0.3 mg/dL, respectively. Moreover, the LD50 at 336 h in series [2] is above 150 mg/kg. Further, the “Number of K-562 cells after culture” value in series [3] (1 microgram/ml) was 8.5 ×10^5 cells/ml; in series [3] (10 micrograms/ml) it was 3.5 ×10^5 cells/ml. In series [3] (Homo sapiens, K562, 72 h, 1 microgram/ml, vs dimethylsulfoxide, read-out: Inhibition Rate of K-562 cells), the inhibition at 1 µg/mL came out at 14%. Besides, in series [3] (Homo sapiens, K562, 72 h, 10 micrograms/ml, vs dimethylsulfoxide, read-out: Inhibition Rate of K-562 cells), the inhibition at 10 µg/mL was 65%. In the series on calcium level in serum [4] (baseline), the “calcium level in serum before treatment” value was 14.0 mg/dL. The “calcium level in serum on the sixth day” value with calcium level in serum [4] (two 5 µg capsules/day oral, 5 days) was 10.8 mg/dL. Also, the “Uptake of 3H-TdR in presence of Concanavalin A” value in series [5] (setting [7]) was determined as 3995 ± 412 cpm. The “Uptake of 3H-TdR in presence of Lipopolysaccharide” value in series [5] (setting [7]) is on record as 3568 ± 372 cpm. In addition, in series [5] (po, 0.1 mg/kg, 288 h), the “Number of mononucleate (ratio, first group = 1.00)” value was found to be 0.68 ± 0.17. Further, the “inorganic phosphate level in serum” value in series [6] is “significant reduction of the inorganic phosphate level”. Further, in the series on thymic cells, the “number ratio of cells a little larger than normal cell to total thymic cells” value is “the same as that of the control group”.
